Laboratory results from US12441725B2, “ISO-citrate dehydrogenase (IDH) inhibitor” (ZHEJIANG METON PHARMACEUTICAL CO., LTD, priority 2019, dated 2025).

What was measured:
[1] = molecular target: T1, IDH (endogenous IDH1 R132C) in HT1080 cell (Homo sapiens, UniProt O75874, R132C); assay: Cell-based assay for IDH inhibition (decrease of D-2-HG) in HT1080 cells; conditions: human fibrosarcoma cell line HT1080, 16 hours treatment, D-2-HG by LC-MS, in triplet
T1 construct: which harbor endogenous heterozygous IDH1 R132C and R132H mutation respectively and accumulate D-2-HG
Method in brief: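 HT1080 cells with endogenous IDH1 R132C, grown in DMEM/10% FBS, treated with compound at several concentrations for 16 h. Metabolites extracted in cold 40% methanol/40% acetonitrile and D-2-HG measured by HILIC LC-MS/MS, normalized to glutamate. IC50 from D-2-HG relative to DMSO controls; run in triplicate.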

[2] = molecular target: T2, IDH1 R132H (Homo sapiens, UniProt O75874, R132H); assay: Biochemical assay for IDH inhibition (NADPH fluorescence), mutant IDH1 R132H; conditions: 50 nM IDH1-R132H, 1 hour pre-incubation, in triplet
T2 construct: 6xHis
Method in brief: (§1)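 Mutant enzyme (25 nM R132C or 50 nM R132H) was preincubated 1 h at room temperature with compound in pH 7.5 Tris buffer containing 1.33 mM α-KG, and the reaction was then started with NADPH (80 μM solution). NADPH consumption was followed by fluorescence (Ex 340/Em 460 nm) for 15 min. IC50 was derived from background-corrected linear rates relative to vehicle, run in triplicate.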

[3] = molecular target: T3, IDH1 R132C (Homo sapiens, UniProt O75874, R132C); assay: Biochemical assay for IDH inhibition (NADPH fluorescence), mutant IDH1 R132C; conditions: 25 nM IDH1-R132C, 1 hour pre-incubation, in triplet
T3 construct: 6xHis
Method in brief: as §1

T2 sequence (O75874 whole entry R132H): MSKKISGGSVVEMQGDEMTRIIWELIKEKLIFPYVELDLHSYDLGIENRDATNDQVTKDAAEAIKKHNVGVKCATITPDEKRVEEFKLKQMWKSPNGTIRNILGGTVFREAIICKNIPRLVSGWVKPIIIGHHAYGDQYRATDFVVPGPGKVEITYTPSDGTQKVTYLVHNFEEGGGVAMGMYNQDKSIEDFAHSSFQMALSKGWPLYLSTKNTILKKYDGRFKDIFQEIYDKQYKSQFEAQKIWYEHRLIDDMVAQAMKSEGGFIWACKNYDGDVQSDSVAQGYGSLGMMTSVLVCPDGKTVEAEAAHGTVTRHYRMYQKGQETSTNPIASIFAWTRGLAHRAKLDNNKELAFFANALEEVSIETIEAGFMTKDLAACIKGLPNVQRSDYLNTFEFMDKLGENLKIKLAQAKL
T3 sequence (O75874 whole entry R132C): as the sequence (O75874 whole entry R132H) above, with H132C counted along it
T1 sequence (O75874 2-414 R132C): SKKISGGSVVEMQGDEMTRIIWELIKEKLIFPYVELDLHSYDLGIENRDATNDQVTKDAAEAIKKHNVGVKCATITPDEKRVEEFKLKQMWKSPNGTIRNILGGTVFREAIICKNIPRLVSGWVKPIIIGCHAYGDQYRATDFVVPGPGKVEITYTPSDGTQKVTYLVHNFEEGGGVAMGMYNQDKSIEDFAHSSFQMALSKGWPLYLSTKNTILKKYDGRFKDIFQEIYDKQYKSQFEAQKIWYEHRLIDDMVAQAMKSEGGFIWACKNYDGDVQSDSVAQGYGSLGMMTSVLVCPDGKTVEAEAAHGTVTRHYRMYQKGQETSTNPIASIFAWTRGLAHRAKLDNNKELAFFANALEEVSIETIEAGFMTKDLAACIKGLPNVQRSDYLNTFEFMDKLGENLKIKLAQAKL

SMILES | IC50 [1] | IC50 [2] | IC50 [3]
CCN1Cc2c(ccnc2N[C@@H](C)c2cc(F)c(-c3cc(C(C)(C)C)ncn3)cc2F)C1=O [Compound 110, (S)-4-((1-(4-(6-(tert-butyl)pyrimidin-4-yl)-2,5-difluorophenyl)ethyl)amino)-2-ethyl-2,3-dihydro-1H-pyrrolo[3,4-c]pyridin-1-one] | < 100 nM | < 100 nM | < 100 nM
CCN1Cc2c(ccnc2N[C@@H](C)c2ccc(-c3ccccc3)c(F)c2)C1=O [Compound 80, (S)-2-ethyl-4-((1-(2-fluoro-[1,1′-biphenyl]-4-yl)ethyl)amino)-2,3-dihydro-1H-pyrrolo[3,4-c]pyridin-1-one] | > 1000 nM | > 1000 nM | > 1000 nM
CCN1Cc2c(ccnc2N[C@@H](C)c2ccc(-c3ccnc(C(C)(C)C)c3)c(F)c2)C1=O [Compound 71, (S)-4-((1-(4-(2-(tert-butyl)pyridin-4-yl)-3-fluorophenyl)ethyl)amino)-2-ethyl-2,3-dihydro-1H-pyrrolo[3,4-c]pyridin-1-one] | 100 to 500 nM | < 100 nM | < 100 nM
CCN1Cc2c(ccnc2N[C@@H](C)c2cc(F)c(-c3cc(OC(C)(C)C)cc(C)n3)cc2F)C1=O [Compound 129, (S)-4-((1-(4-(4-(tert-butoxy)-6-methylpyridin-2-yl)-2,5-difluorophenyl)ethyl)amino)-2-ethyl-2,3-dihydro-1H-pyrrolo[3,4-c]pyridin-1-one] | < 100 nM | < 100 nM | < 100 nM
CCN1Cc2c(ccnc2N[C@@H](C)c2cc(F)c(-c3ccnc(C(C)(C)O)c3)cc2F)C1=O [Compound 103, (S)-4-((1-(2,5-difluoro-4-(2-(2-hydroxypropan-2-yl)pyridin-4-yl)phenyl)ethyl)amino)-2-ethyl-2,3-dihydro-1H-pyrrolo[3,4-c]pyridin-1-one] | > 1000 nM | > 1000 nM | > 1000 nM
CCN1Cc2c(ccnc2N[C@@H](C)c2cc(F)c(-c3cc(C(F)(F)F)cc(F)n3)cc2F)C1=O [Compound 155, (S)-4-((1-(2,5-difluoro-4-(6-fluoro-4-(trifluoromethyl)pyridin-2-yl)phenyl)ethyl)amino)-2-ethyl-2,3-dihydro-1H-pyrrolo[3,4-c]pyridin-1-one] | 100 to 500 nM | < 100 nM | 100 to 500 nM
CCN1Cc2c(ccnc2N[C@@H](C)c2cc(F)c(-c3cc(NC(C)(C)C)cc(C)n3)cc2F)C1=O [Compound 128, (S)-4-((1-(4-(4-(tert-butylamino)-6-methylpyridin-2-yl)-2,5-difluorophenyl)ethyl)amino)-2-ethyl-2,3-dihydro-1H-pyrrolo[3,4-c]pyridin-1-one] | 100 to 500 nM | < 100 nM | 100 to 500 nM
CCN1Cc2c(ccnc2N[C@@H](C)c2cc(F)c(-c3ccnc(C(C)(C)F)c3)cc2F)C1=O [Compound 102, 4-[[(1S)-1-[2,5-difluoro-4-[2-(1-fluoro-1-methyl-ethyl)-4-pyridyl]phenyl]ethyl]amino]-2-ethyl-3H-pyrrolo[3,4-c]pyridin-1-one] | 100 to 500 nM | < 100 nM | 100 to 500 nM
CCN1Cc2c(ccnc2N[C@@H](C)c2ccc(C3CCN(C(C)(C)C)CC3)c(F)c2)C1=O [Compound 36, (S)-4-((1-(4-(1-(tert-butyl)piperidin-4-yl)-3-fluorophenyl)ethyl)amino)-2-ethyl-2,3-dihydro-1H-pyrrolo[3,4-c]pyridin-1-one] | > 1000 nM | > 1000 nM | > 1000 nM
CCN1Cc2c(ccnc2N[C@@H](C)c2cc(F)c(-c3ccnc(C(C)(C)C)n3)cc2F)C1=O [Compound 111, (S)-4-((1-(4-(2-(tert-butyl)pyrimidin-4-yl)-2,5-difluorophenyl)ethyl)amino)-2-ethyl-2,3-dihydro-1H-pyrrolo[3,4-c]pyridin-1-one] | 100 to 500 nM | < 100 nM | 100 to 500 nM
C/C=C(\c1ccnc(-c2cc(F)c([C@H](C)Nc3nccc4c3CN(CC)C4=O)cc2F)c1)C(F)(F)F [Compound 125, (S,E)-4-((1-(2,5-difluoro-4-(4-(1,1,1-trifluorobut-2-en-2-yl)pyridin-2-yl)phenyl)ethyl)amino)-2-ethyl-2,3-dihydro-1H-pyrrolo[3,4-c]pyridin-1-one] | < 100 nM | < 100 nM | < 100 nM
CCN1Cc2c(ccnc2N[C@@H](C)c2ccc(-c3ccnc4ccccc34)c(F)c2)C1=O [Compound 70, (S)-2-ethyl-4-((1-(3-fluoro-4-(quinolin-4-yl)phenyl)ethyl)amino)-2,3-dihydro-1H-pyrrolo[3,4-c]pyridin-1-one] | > 1000 nM | > 1000 nM | > 1000 nM
CCN1Cc2c(ccnc2N[C@@H](C)c2ccc(Oc3ccc4c(c3)CCN4C)c(F)c2)C1=O [Compound 29, (S)-2-ethyl-4-((1-(3-fluoro-4-((1-methylindolin-5-yl)oxy)phenyl)ethyl)amino)-2,3-dihydro-1H-pyrrolo[3,4-c]pyridin-1-one] | > 1000 nM | 100 to 500 nM | 500 to 1000 nM
CCN1Cc2c(ccnc2N[C@@H](C)c2cc(F)c(-c3cc(C(F)(F)F)cc(O)n3)cc2F)C1=O [Compound 157, (S)-4-((1-(2,5-difluoro-4-(6-hydroxy-4-(trifluoromethyl)pyridin-2-yl)phenyl)ethyl)amino)-2-ethyl-2,3-dihydro-1H-pyrrolo[3,4-c]pyridin-1-one] | > 1000 nM | 100 to 500 nM | > 1000 nM
CCN1Cc2c(ccnc2N[C@@H](C)c2cc(F)c(-c3cc(C(C)(C)F)ncn3)cc2F)C1=O [Compound 130, (S)-4-((1-(2,5-difluoro-4-(6-(2-fluoropropan-2-yl)pyrimidin-4-yl)phenyl)ethyl)amino)-2-ethyl-2,3-dihydro-1H-pyrrolo[3,4-c]pyridin-1-one] | 100 to 500 nM | < 100 nM | 100 to 500 nM
CCN1Cc2c(ccnc2N[C@@H](C)c2cc(F)c(-c3cc(C(C)(C)F)c(C(F)(F)F)cn3)cc2F)C1=O [Compound 148, (S)-4-((1-(2,5-difluoro-4-(4-(2-fluoropropan-2-yl)-5-(trifluoromethyl)pyridin-2-yl)phenyl)ethyl)amino)-2-ethyl-2,3-dihydro-1H-pyrrolo[3,4-c]pyridin-1-one] | < 100 nM | < 100 nM | < 100 nM
CCN1Cc2c(ccnc2N[C@@H](C)c2ccc(OC3CCc4ccccc43)c(F)c2)C1=O (stereo partly drawn) [Compound 6, 4-(((1S)-1-(4-((2,3-dihydro-1H-inden-1-yl)oxy)-3-fluorophenyl)ethyl)amino)-2-ethyl-2,3-dihydro-1H-pyrrolo[3,4-c]pyridin-1-one] | > 1000 nM | 500 to 1000 nM | > 1000 nM
CCN1Cc2c(ccnc2N[C@@H](C)c2cc(F)c(-c3cc(C(C)(C)C)ncc3OC)cc2F)C1=O [Compound 116, (S)-4-((1-(4-(2-(tert-butyl)-5-methoxypyridin-4-yl)-2,5-difluorophenyl)ethyl)amino)-2-ethyl-2,3-dihydro-1H-pyrrolo[3,4-c]pyridin-1-one] | < 100 nM | < 100 nM | < 100 nM
CCN1Cc2c(ccnc2N[C@@H](C)c2cc(F)c(-c3cc(C(C)(C)F)c(C#N)cn3)cc2F)C1=O [Compound 163, (S)-6-(4-(1-((2-ethyl-1-oxo-2,3-dihydro-1H-pyrrolo[3,4-c]pyridin-4-yl)amino)ethyl)-2,5-difluorophenyl)-4-(2-fluoropropan-2-yl)nicotinonitrile] | < 100 nM | < 100 nM | 100 to 500 nM
CCN1Cc2c(ccnc2N[C@@H](C)c2ccc(-c3ccc(C(F)(F)F)cc3)c(F)c2)C1=O [Compound 33, (S)-2-ethyl-4-((1-(2-fluoro-4′-(trifluoromethyl)-[1,1′-biphenyl]-4-yl)ethyl)amino)-2,3-dihydro-1H-pyrrolo[3,4-c]pyridin-1-one] | > 1000 nM | 500 to 1000 nM | > 1000 nM
CCN1Cc2c(ccnc2N[C@@H](C)c2cc(F)c(-c3cc(C(F)(F)F)ccn3)cc2F)C1=O [Compound 115, (S)-4-((1-(2,5-difluoro-4-(4-(trifluoromethyl)pyridin-2-yl)phenyl)ethyl)amino)-2-ethyl-2,3-dihydro-1H-pyrrolo[3,4-c]pyridin-1-one] | 100 to 500 nM | < 100 nM | 100 to 500 nM
CCN1Cc2c(ccnc2N[C@@H](C)c2cc(F)c(-c3cc(C(C)(C)F)c(OCOC)cn3)cc2F)C1=O [Compound 161, (S)-4-((1-(2,5-difluoro-4-(4-(2-fluoropropan-2-yl)-5-(methoxymethoxy)pyridin-2-yl)phenyl)ethyl)amino)-2-ethyl-2,3-dihydro-1H-pyrrolo[3,4-c]pyridin-1-one] | < 100 nM | < 100 nM | < 100 nM
CCN1Cc2c(ccnc2N[C@@H](C)c2cc(F)c(-c3nc(C(C)(C)C)ccc3OC)cc2F)C1=O [Compound 117, (S)-4-((1-(4-(6-(tert-butyl)-3-methoxypyridin-2-yl)-2,5-difluorophenyl)ethyl)amino)-2-ethyl-2,3-dihydro-1H-pyrrolo[3,4-c]pyridin-1-one] | < 100 nM | < 100 nM | < 100 nM
